The nature of data set [1]: Tissue biodistribution of 18F-labeled tracers postinjection. Particulars: for background muscle uptake: 0.5 and 2 hours postinjection. The class given is in vivo, mice (ICR strain). On the procedure:
FIGS. 11 and 12 are graphs showing biodistribution of ^18F-labeled FTO (“FTO,” left bar, Compound I) and the ^18F-labeled oleate analog (“clicked FTO,” right bar, compound Va) at 0.5 hours (FIG. 11) and 2 hours (FIG. 12) postinjection into mice (ICR strain). Similar to ^18F-FTO, the ^18F-labeled oleate analog has low background muscle uptake at 0.5 and 2 hours postinjection.
FIG. 14 is a table showing tissue biodistribution of ^18F-labeled-Oleate analog (compound Va) in mice (ICR strain).

The next data set concerns PC3 cells. The data set can be described thus: Post-fix click fluorescence microscopy of alkyne fatty acid uptake. Type of data set: cell-based. Conditions: fixed, permeated, stained with sulfo-Cy3-azide. On the procedure:
Cells were treated with Alkyn-4-Thia-Palmitate, Alkyn-Palmitate, or control. The cells were then fixed, and incubated with sulfo-Cy3 azide to detect the trapped fatty acid analog.
This example illustrates in vitro analysis of fatty acid metabolism using the disclosed compounds. Cells were incubated with a fatty acid analog including a terminal alkyne group, fixed, and then treated with sulfo-Cy3-azide. The sulfo-Cy3-azide undergoes a click chemistry reaction (a 1,3-dipolar cycloaddition) with the terminal […] of the fatty acid homolog in the fixed cells to form a triazole ring linked to the fatty acid analog. The Cy3 moiety is then detected by fluorescence microscopy.
• 1. Place approximately 500 PC3 cells on coverslip in 24 well plates. • 2. Starve the cell with 250 μL of glucose free media overnight. • 3. Replace the media before the experiment with fresh 250 μL of glucose free media. • 4. Add alkyne fatty acid to the selected wells with coverslip and 1% BSA 10 μL in the control well and incubate at 37° C. for 1 or 2 h. • 5. After respective time wash the cells with 500 μL of 1% BSA for 3×5 min to remove extra fatty acid. • 6. Fix the cells with 300 μL of 4% paraformaldehyde (PFA) for 15 min • 7. Wash the cells once with PBS. • 8. […] Mount the coverslip and analyze by fluorescence microscopy. […]

Data set [2] deals with Ehrlich ascites tumor cells. Conditions: injected directly into the peritoneal fluid; cited from earlier work.
Another data set has as its system PCa cells. Conditions: cited from earlier work.
The next data set has as its system PC3 xenografts. In words: Small animal PET/CT imaging of tracer uptake in PC3 xenografts. The class given is in vivo, mice. Conditions: 2 hours postinjection, listed as 18F-clicked-FTO. On the procedure: Small animal PET/CT imaging was performed as previously described (Sprague et al., Clin. Cancer. Res. 2004, 10 (24), 8674-8682). Briefly, the ^18F-clicked palmitate or ^18F-clicked oleate analog (3.7 MBq) was injected via tail vein and the mouse was imaged at 2 hours postinjection. Static imaging was performed on an Inveon PET/CT scanner (Constantinescu et al., Phys. Med. Biol., 54, 2885-2899, 2009; Kemp et al., Phys. Med. Biol., 54, 2359-2376, 2009) with 10 min PET scanning followed by a 5 min CT. Inveon Research Workplace (IRW) from Siemens Healthcare Global was used for co-registration of PET/CT images and quantification of regions of interest (ROI). PET/CT images were reconstructed with maximum a posteriori (MAP), 3D ordered-subset expectation maximization (OSEM3D), 2D ordered-subset expectation maximization (OSEM2D), and filtered back projection (2DFBP). Standard uptake values (SUV) were generated by measuring ROI from PET/CT images and calculated with the formula: SUV=[nCi/ml]×[animal weight (g)]/injected dose [nCi]. FDG was injected intraperitoneally 36 hours pre-injection. 2-DG was injected intraperitoneally 4 hours pre-injection. […]

In data set [3] the test system is β-oxidation in heart tissue. In words: Folch-type extraction of 18F signal in heart tissue (oxidized vs unoxidized analog). The class given is in vivo, mice (ICR strain). An excerpt: FIGS. 9-10 are graphs showing the distribution of ^18F signal in heart tissue taken from fasted mice (ICR strain) administered the ^18F-labeled oleate analog (compound Va). Folch-type extraction was used to separate “Organic” (unoxidized analog) from “Pellets” and “Aqueous” (oxidized fatty acid metabolites).

The subject of data set [4] is β-oxidation (myocardial uptake). In words: Blockage of β-oxidation / myocardial uptake with etomoxir. The class given is in vivo, mice. The text has this: FIG. 13 is a graph showing the blockage of β-oxidation of ^18F-labeled FTO (“FTO,” left bar, Compound I) and the ^18F-labeled oleate analog (“clicked FTO,” right bar, compound Va) with etomoxir.

Values joined by “and” are separate entries in the source; they are usually repeats but may differ in a detail not shown here. Identical values can stand only once.

`O=C(O)CCSCCCC/C=C\CCCCCCCC[18F]` [FTO, [^18F]Fluoro-4-thia-oleic acid, reference compound]: the background muscle uptake entry in data set [1] was “low”.
For alkyn-4-thia-palmitate, the “uptake by PCa cells” value in the data set on PC3 cells is “avidly take up”.
^14C-palmitate: in data set [2], the “incorporation into Ehrlich ascites tumor cells / cellular lipids” value was 40-50%.
`[3H]C(CCCCCC)C([3H])CCCCCCCC(=O)O` (centres unmarked) [^3H-palmitic acid]: in the data set on PCa cells, the “uptake in PCa cells compared with 2-DG” value was “dominant uptake”.
Turning to `O=C[C@H](O)[C@@H](O)[C@H](O)[C@H](O)CO` [^14C-glucose], the “incorporation into Ehrlich ascites tumor cells / cellular lipids” value in data set [2] is 1%.
As for `O=C(O)CCSCCCC/C=C\CCCCCCCc1cn(CC[18F])nn1` [compound Va, (Z)-3-((13-(1-(2-[^18F]fluoroethyl)-1H-1,2,3-triazol-4-yl)tridec-5-en-1-yl)thio)propanoic acid], in data set [1], the background muscle uptake entry was “low”. For the same molecule, in data set [1] (0.5 hours postinjection), the “in vivo defluorination relative to 18F-FTO” value is “significantly less”. Moreover, the “in vivo defluorination relative to FTO” value in data set [1] (2 hours postinjection) is reported as “significantly inhibited”. In addition, in data set [1] (mice, postinjection), the “myocardial uptake relative to 18F-FTO” value was “lower than the ^18F-FTO”. Besides, the “uptake in the tumor (SUV)” value in the data set with PC3 xenografts (2-DG and FDG treated mice, 3.7 MBq via tail vein) was 0.21 and 0.22; in the data set with PC3 xenografts (control group not treated with 2-DG and FDG) it was 0.15 and 0.18. Also, in data set [3] (fasted mice, Organic (unoxidized) vs Pellets and Aqueous (oxidized metabolites)), the “oxidation of the analog in heart tissue over time” value is on record as “more of the fatty acid analog was oxidized”. Further, the “myocardial uptake, blockage with etomoxir” value in data set [4] is recorded as “can be blocked with etomoxir”.
Consider `CCOC(=O)[C@@]1(CCCCCCOc2ccc(Cl)cc2)CO1` [Etomoxir, reference compound], for which the “effect on extent of β-oxidation of the 18F-labeled oleate analog in heart tissue” value in data set [3] (fasted mice given compound Va) was “reduced the extent of the β-oxidation”.

The values above are taken from patent publication US20160185735A1, “FATTY ACID ANALOGS AND THEIR USE” (UNIVERSITY OF PITTSBURGH - OF THE COMMONWEALTH SYSTEM OF …, priority 2013, published 2016).
